Experimental data reported in the NIST ThermoML archive (doi:10.1021/je0602115).
Several values for one entry are separate records, joined by “and”; a condition that tells them apart may be missing. Equal values may be shown once. ± gives the expanded uncertainty stated by the source.

conditions: 313.15 K; Liquid; Closed cell (Static) method

Row | SMILES | vapor or sublimation pressure
1 | Cc1ccccc1 [toluene] | 7.88 ± 0.041 kPa [middle of 4 runs]
2 | CCCCCCC [heptane] | 12.32 ± 0.056 kPa and 12.33 ± 0.056 kPa and 12.31 ± 0.056 kPa
3 | CCOC(C)(C)C [2-ethoxy-2-methylpropane] | 31.62 ± 0.12 kPa and 31.63 ± 0.12 kPa and 31.64 ± 0.12 kPa
